Source: ChEMBL document CHEMBL1148480, “Structure-activity studies of orexin a and orexin B at the human orexin 1 and orexin 2 receptors led to orexin 2 receptor selective and orexin 1 receptor preferring ligands” (J Med Chem, 2004)
Non-standard residues stand in square brackets, D forms with d. Residues, ends and D or L forms follow the SMILES beside them. pGlu = O=C1CC[C@@H](C(=O)O)N1

Experiments:
[1] = Ratio of orexin-1 receptor to orexin-2 receptor in human
Orexin receptor type 2 = target: T1, Orexin receptor type 2 (Homo sapiens, UniProt O43614); test: Effective agonist concentration to the human Orexin receptor type 2 was determined using the Xlfit program; type: functional
T1 sequence (O43614 whole entry): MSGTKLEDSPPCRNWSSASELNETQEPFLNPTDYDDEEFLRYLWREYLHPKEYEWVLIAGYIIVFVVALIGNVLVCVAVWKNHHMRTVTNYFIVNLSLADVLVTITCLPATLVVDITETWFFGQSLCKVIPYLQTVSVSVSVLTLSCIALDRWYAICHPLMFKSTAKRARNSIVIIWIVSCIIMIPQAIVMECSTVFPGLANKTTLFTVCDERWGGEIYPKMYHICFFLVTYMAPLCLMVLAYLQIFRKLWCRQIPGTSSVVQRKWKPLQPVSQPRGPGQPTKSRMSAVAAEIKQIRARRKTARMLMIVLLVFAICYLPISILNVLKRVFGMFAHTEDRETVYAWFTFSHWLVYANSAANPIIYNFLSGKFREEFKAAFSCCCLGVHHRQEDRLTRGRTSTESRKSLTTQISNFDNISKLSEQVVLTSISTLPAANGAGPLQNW

[2] = target: T2, Orexin/Hypocretin receptor type 1 (Homo sapiens, UniProt O43613); test: Effective agonist concentration to human orexin receptor type 1 determined using the Xlfit program; type: functional
T2 sequence (O43613 whole entry): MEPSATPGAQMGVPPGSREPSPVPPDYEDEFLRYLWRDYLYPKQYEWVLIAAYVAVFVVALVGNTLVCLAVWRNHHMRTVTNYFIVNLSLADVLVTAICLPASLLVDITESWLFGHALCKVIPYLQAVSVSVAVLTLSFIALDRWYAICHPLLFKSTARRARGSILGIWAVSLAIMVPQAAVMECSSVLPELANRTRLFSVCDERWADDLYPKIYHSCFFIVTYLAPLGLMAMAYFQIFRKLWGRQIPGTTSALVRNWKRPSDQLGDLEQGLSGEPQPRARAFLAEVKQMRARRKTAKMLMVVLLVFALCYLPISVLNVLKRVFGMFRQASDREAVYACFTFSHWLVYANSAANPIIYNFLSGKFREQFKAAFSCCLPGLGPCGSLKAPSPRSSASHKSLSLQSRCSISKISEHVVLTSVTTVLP

SMILES	Ratio [1]	EC50 (Orexin receptor type 2) [µM]	EC50 [2] [µM]
CC[C@H](C)[C@H](NC(=O)CNC(=O)[C@H](C)NC(=O)[C@H](C)NC(=O)[C@H](Cc1c[nH]cn1)NC(=O)[C@H](CC(N)=O)NC(=O)CNC(=O)[C@H](C)NC(=O)CNC(=O)[C@H](Cc1c[nH]cn1)NC(=O)[C@H](CC(C)C)NC(=O)[C@H](CC(C)C)NC(=O)[C@H](CCC(=O)O)NC(=O)[C@H](Cc1ccc(O)cc1)NC(=O)[C@H](CC(C)C)NC(=O)[C@H](CCCN=C(N)N)NC(=O)[C@H](CSSC[C@H](NC(=O)[C@@H](N)CO)C(=O)N[C@@H](CCCN=C(N)N)C(=O)N[C@@H](CC(C)C)C(=O)N[C@@H](Cc1ccc(O)cc1)C(=O)N[C@@H](CCC(=O)O)C(=O)N[C@@H](CC(C)C)C(=O)N[C@@H](CC(C)C)C(=O)N[C@@H](Cc1c[nH]cn1)C(=O)NCC(=O)N[C@@H](C)C(=O)NCC(=O)N[C@@H](CC(N)=O)C(=O)N[C@@H](Cc1c[nH]cn1)C(=O)N[C@@H](C)C(=O)N[C@@H](C)C(=O)NCC(=O)N[C@H](C(=O)N[C@@H](CC(C)C)C(=O)N[C@H](C(=O)N[C@@H](CC(C)C)C(=O)O)[C@@H](C)O)[C@@H](C)CC)NC(=O)[C@@H](N)CO)C(=O)N[C@@H](CC(C)C)C(=O)N[C@H](C(=O)N[C@@H](CC(C)C)C(=O)O)[C@@H](C)O	2.9		
CC[C@H](C)[C@H](NC(=O)CNC(=O)[C@H](C)NC(=O)[C@H](C)NC(=O)[C@H](Cc1cnc[nH]1)NC(=O)[C@H](CC(N)=O)NC(=O)CNC(=O)[C@H](CO)NC(=O)[C@H](C)NC(=O)[C@H](CCC(N)=O)NC(=O)[C@H](CC(C)C)NC(=O)[C@H](CC(C)C)NC(=O)[C@H](CCCNC(=N)N)NC(=O)[C@H](CCC(N)=O)NC(=O)[C@H](CC(C)C)NC(=O)[C@@H](N)CCCNC(=N)N)C(=O)N[C@@H](CC(C)C)C(=O)N[C@H](C(=O)N[C@@H](CCSC)C(=O)O)[C@@H](C)O (H-RLQRLLQASGNHAAGILTM-OH)		0.57	> 1000
CC[C@H](C)[C@H](NC(=O)CNC(=O)[C@H](C)NC(=O)[C@H](C)NC(=O)[C@H](Cc1cnc[nH]1)NC(=O)[C@H](CC(N)=O)NC(=O)CNC(=O)[C@H](C)NC(=O)CNC(=O)[C@H](Cc1cnc[nH]1)NC(=O)[C@H](CC(C)C)NC(=O)[C@H](CC(C)C)NC(=O)[C@H](CCC(=O)O)NC(=O)[C@H](Cc1ccc(O)cc1)NC(=O)[C@H](CC(C)C)NC(=O)[C@@H](N)CCCNC(=N)N)C(=O)N[C@@H](CC(C)C)C(=O)N[C@H](C(=O)N[C@@H](CC(C)C)C(=O)O)[C@@H](C)O (H-RLYELLHGAGNHAAGILTL-OH)		0.42	1.79
CC[C@H](C)[C@H](NC(=O)CNC(=O)[C@H](C)NC(=O)[C@H](C)NC(=O)[C@H](Cc1cnc[nH]1)NC(=O)[C@H](CC(N)=O)NC(=O)CNC(=O)[C@H](C)NC(=O)CNC(=O)[C@H](Cc1cnc[nH]1)NC(=O)[C@H](CC(C)C)NC(=O)[C@H](CC(C)C)NC(=O)[C@H](CCC(=O)O)NC(=O)[C@H](Cc1ccc(O)cc1)NC(=O)[C@H](CC(C)C)NC(=O)[C@H](CCCNC(=N)N)NC(=O)[C@H](CS)NC(=O)[C@H](CO)NC(=O)[C@H](CS)NC(=O)[C@@H](NC(=O)[C@H](CCCCN)NC(=O)[C@H](CCC(N)=O)NC(=O)[C@@H](N)CCCNC(=N)N)[C@@H](C)O)C(=O)N[C@@H](CC(C)C)C(=O)N[C@H](C(=O)N[C@@H](CC(C)C)C(=O)O)[C@@H](C)O (H-RQKTCSCRLYELLHGAGNHAAGILTL-OH)		0.29	0.68
CC(C)C[C@H](NC(=O)CNC(=O)[C@@H]1CCCN1C(=O)[C@@H]1CCCN1C(=O)CNC(=O)[C@H](CO)NC(=O)[C@@H](N)CCCN=C(N)N)C(=O)N[C@@H](CCC(N)=O)C(=O)NCC(=O)N[C@@H](CCCN=C(N)N)C(=O)O (H-RSGPPGLQGR-OH)		> 1000	> 1000
CC(C)C[C@H](NC(=O)CNC(=O)[C@@H]1CCCN1C(=O)[C@@H]1CCCN1C(=O)CNC(=O)[C@H](CO)NC(=O)[C@@H](N)CCCN=C(N)N)C(=O)N[C@@H](CCC(N)=O)C(=O)NCC(=O)N[C@@H](CCCN=C(N)N)C(=O)N[C@@H](CC(C)C)C(=O)N[C@@H](CCC(N)=O)C(=O)N[C@@H](CCCN=C(N)N)C(=O)O (H-RSGPPGLQGRLQR-OH)		> 1000	> 1000
CC(C)C[C@H](NC(=O)CNC(=O)[C@@H]1CCCN1C(=O)[C@@H]1CCCN1C(=O)CNC(=O)[C@H](CO)NC(=O)[C@@H](N)CCCN=C(N)N)C(=O)N[C@@H](CCC(N)=O)C(=O)NCC(=O)N[C@@H](CCCN=C(N)N)C(=O)N[C@@H](CC(C)C)C(=O)N[C@@H](CCC(N)=O)C(=O)N[C@@H](CCCN=C(N)N)C(=O)N[C@@H](CC(C)C)C(=O)N[C@@H](CC(C)C)C(=O)N[C@@H](CCC(N)=O)C(=O)O (H-RSGPPGLQGRLQRLLQ-OH)		> 1000	> 1000
CC(C)C[C@H](NC(=O)CNC(=O)[C@@H]1CCCN1C(=O)[C@@H]1CCCN1C(=O)CNC(=O)[C@H](CO)NC(=O)[C@@H](N)CCCNC(=N)N)C(=O)N[C@@H](CCC(N)=O)C(=O)NCC(=O)N[C@@H](CCCNC(=N)N)C(=O)N[C@@H](CC(C)C)C(=O)N[C@@H](CCC(N)=O)C(=O)N[C@@H](CCCNC(=N)N)C(=O)N[C@@H](CC(C)C)C(=O)N[C@@H](CC(C)C)C(=O)N[C@@H](CCC(N)=O)C(=O)N[C@@H](C)C(=O)N[C@@H](CO)C(=O)NCC(=O)N[C@@H](CC(N)=O)C(=O)N[C@@H](Cc1cnc[nH]1)C(=O)O (H-RSGPPGLQGRLQRLLQASGNH-OH)		> 1000	> 1000
CC[C@H](C)[C@H](NC(=O)CNC(=O)[C@H](C)NC(=O)[C@H](C)NC(=O)[C@H](Cc1cnc[nH]1)NC(=O)[C@H](CC(N)=O)NC(=O)CNC(=O)[C@H](C)NC(=O)CNC(=O)[C@H](Cc1cnc[nH]1)NC(=O)[C@H](CC(C)C)NC(=O)[C@H](CC(C)C)NC(=O)[C@H](CCC(=O)O)NC(=O)[C@H](Cc1ccc(O)cc1)NC(=O)[C@H](CC(C)C)NC(=O)[C@H](CCCNC(=N)N)NC(=O)[C@H](CS)NC(=O)[C@@H](N)CO)C(=O)N[C@@H](CC(C)C)C(=O)N[C@H](C(=O)N[C@@H](CC(C)C)C(=O)O)[C@@H](C)O (H-SCRLYELLHGAGNHAAGILTL-OH)		0.45	1.03
CC[C@H](C)[C@H](NC(=O)CNC(=O)[C@H](C)NC(=O)[C@H](C)NC(=O)[C@H](Cc1c[nH]cn1)NC(=O)[C@H](CC(N)=O)NC(=O)CNC(=O)[C@@H](N)CO)C(=O)N[C@@H](CC(C)C)C(=O)N[C@H](C(=O)N[C@@H](CCSC)C(=O)O)[C@@H](C)O (H-SGNHAAGILTM-OH)		> 1000	> 1000
CC[C@H](C)[C@H](NC(=O)CNC(=O)[C@H](C)NC(=O)[C@H](C)NC(=O)[C@H](Cc1cnc[nH]1)NC(=O)[C@H](CC(N)=O)NC(=O)CNC(=O)[C@H](C)NC(=O)CNC(=O)[C@H](Cc1cnc[nH]1)NC(=O)[C@H](CC(C)C)NC(=O)[C@H](CC(C)C)NC(=O)[C@H](CCC(=O)O)NC(=O)[C@H](Cc1ccc(O)cc1)NC(=O)[C@H](CC(C)C)NC(=O)[C@H](CCCNC(=N)N)NC(=O)[C@H](CS)NC(=O)[C@H](CO)NC(=O)[C@H](CS)NC(=O)[C@@H](N)[C@@H](C)O)C(=O)N[C@@H](CC(C)C)C(=O)N[C@H](C(=O)N[C@@H](CC(C)C)C(=O)O)[C@@H](C)O (H-TCSCRLYELLHGAGNHAAGILTL-OH)		0.38	1.21
CC[C@H](C)[C@H](NC(=O)CNC(=O)[C@H](C)NC(=O)[C@H](C)NC(=O)[C@H](Cc1cnc[nH]1)NC(=O)[C@H](CC(N)=O)NC(=O)CNC(=O)[C@H](C)NC(=O)CNC(=O)[C@H](Cc1cnc[nH]1)NC(=O)[C@H](CC(C)C)NC(=O)[C@H](CC(C)C)NC(=O)[C@H](CCC(=O)O)NC(=O)[C@H](Cc1ccc(O)cc1)NC(=O)[C@H](CC(C)C)NC(=O)[C@H](CCCNC(=N)N)NC(=O)CNC(=O)[C@@H]1CCCN1C(=O)[C@H](CC(=O)O)NC(=O)[C@@H]1CCCN1C(=O)[C@H](CC(C)C)NC(=O)[C@@H]1CCCN1C(=O)[C@@H]1CCC(=O)N1)C(=O)N[C@@H](CC(C)C)C(=O)N[C@H](C(=O)N[C@@H](CC(C)C)C(=O)O)[C@@H](C)O ([pGlu]PLPDPGRLYELLHGAGNHAAGILTL-OH)		0.61	4.52
CC[C@H](C)[C@H](NC(=O)CNC(=O)[C@H](C)NC(=O)[C@H](C)NC(=O)[C@H](Cc1cnc[nH]1)NC(=O)[C@H](C)NC(=O)CNC(=O)[C@H](CO)NC(=O)[C@H](C)NC(=O)[C@H](CCC(N)=O)NC(=O)[C@H](CC(C)C)NC(=O)[C@H](CC(C)C)NC(=O)[C@H](CCCNC(=N)N)NC(=O)[C@H](CCC(N)=O)NC(=O)[C@H](CC(C)C)NC(=O)[C@H](CCCNC(=N)N)NC(=O)CNC(=O)[C@H](CCC(N)=O)NC(=O)[C@H](CC(C)C)NC(=O)CN)C(=O)N[C@@H](CC(C)C)C(=O)N[C@H](C(=O)N[C@@H](CCSC)C(=O)O)[C@@H](C)O (stereo in doubt; form 2)		0.32	2.18
